Measured values published in ChEMBL document CHEMBL4732249, “Design, synthesis and biological evaluation of 2-aminoquinazolin-4(3H)-one derivatives as potential SARS-CoV-2 and MERS-CoV treatments” (Bioorg Med Chem Lett, 2021).

Tested on: not listed separately
Assay: Selective index, ratio of CC50 for African green monkey Vero cells to IC50 for MERS-CoV infected in African green monkey Vero cells
Settings: not given

First: O=c1[nH]c(Nc2cc(F)cc(F)c2)nc2cc([N+](=O)[O-])ccc12
Second: O=c1[nH]c(Nc2cc(F)cc(F)c2)nc2c(Cl)ccc(Cl)c12
The “Ratio CC50/IC50” value of the first is lower: 2.9 for the first, 31 for the second.

Compared with O=c1[nH]c(Nc2cc(Cl)cc(Cl)c2)nc2c(Cl)ccc(Cl)c12, O=c1[nH]c(Nc2cc(Cl)cc(Cl)c2)nc2c(Cl)c(Cl)ccc12 is lower in “Ratio CC50/IC50” value: 42 for the first, 31 for the second.

Tested on: Vero
Assay: Cytotoxicity against African green monkey Vero cells assessed as reduction of cell viability by WST-1 assay
Assay type: cell-based
Settings: chlorocebus sabaeus

CC(C)Nc1nc2cc(Cl)ccc2c(=O)[nH]1 and O=c1[nH]c(NCC2CCCCC2)nc2cc(Cl)ccc12 cannot be ordered by CC50: over 25 µM for the first, over 25 µM for the second.

O=c1[nH]c(Nc2ccc(F)cc2F)nc2cc(Cl)ccc12 and O=c1[nH]c(Nc2ccc(F)c(F)c2F)nc2cc(Cl)ccc12 cannot be ordered by CC50: over 25 µM for the first, over 25 µM for the second.

COc1cccc2nc(Nc3cc(F)cc(F)c3)[nH]c(=O)c12 and O=c1[nH]c(Nc2cc(F)cc(F)c2)nc2c(Cl)ccc(Cl)c12 cannot be ordered by CC50: over 25 µM for the first, over 25 µM for the second.

COC(=O)c1cccc(Nc2nc3cc(Cl)ccc3c(=O)[nH]2)c1 and O=c1[nH]c(Nc2cc(F)cc(F)c2)nc2cc([N+](=O)[O-])ccc12 cannot be ordered by CC50: over 25 µM for the first, over 25 µM for the second.

O=c1[nH]c(Nc2cc(Cl)cc(Cl)c2)nc2c(Cl)ccc(Cl)c12 and O=c1[nH]c(Nc2cc(Cl)cc(Cl)c2)nc2c(Cl)c(Cl)ccc12 cannot be ordered by CC50: over 25 µM for the first, over 25 µM for the second.

Tested on: Middle East respiratory syndrome-related coronavirus
Assay: Antiviral activity against MERS-CoV infected in African green monkey Vero cells assessed as inhibition of viral infection by measuring reduction in spike protein level by immunofluorescence microscopic analysis
Assay type: functional, organism-based
Settings: not given

Going from O=c1[nH]c(Nc2cc(F)cc(F)c2)nc2cc([N+](=O)[O-])ccc12 to O=c1[nH]c(Nc2cc(F)cc(F)c2)nc2c(Cl)ccc(Cl)c12, the IC50 falls from 8.5 µM to 0.79 µM (11-fold). The second is the more potent here.

O=c1[nH]c(Nc2cc(Cl)cc(Cl)c2)nc2c(Cl)ccc(Cl)c12 and O=c1[nH]c(Nc2cc(Cl)cc(Cl)c2)nc2c(Cl)c(Cl)ccc12 are within 1.5-fold of each other in IC50: 0.62 µM for the first, 0.88 µM for the second.

Tested on: SARS-CoV-2
Assay: Antiviral activity against SARS-CoV-2 infected in African green monkey Vero cells assessed as inhibition of viral infection by measuring nucleocapsid protein level by immunofluorescence microscopic analysis
Assay type: functional, organism-based
Settings: Severe acute respiratory syndrome coronavirus 2, Vero

First: CC(C)Nc1nc2cc(Cl)ccc2c(=O)[nH]1
Second: O=c1[nH]c(NCC2CCCCC2)nc2cc(Cl)ccc12
The IC50 of the first is higher: over 25 µM for the first, 14 µM for the second.

Going from O=c1[nH]c(Nc2ccc(F)cc2F)nc2cc(Cl)ccc12 to O=c1[nH]c(Nc2ccc(F)c(F)c2F)nc2cc(Cl)ccc12, the IC50 falls from over 25 µM to 2.6 µM.

Going from COc1cccc2nc(Nc3cc(F)cc(F)c3)[nH]c(=O)c12 to O=c1[nH]c(Nc2cc(F)cc(F)c2)nc2c(Cl)ccc(Cl)c12, the IC50 falls from over 25 µM to 0.33 µM.

First: COC(=O)c1cccc(Nc2nc3cc(Cl)ccc3c(=O)[nH]2)c1
Second: O=c1[nH]c(Nc2cc(F)cc(F)c2)nc2cc([N+](=O)[O-])ccc12
The IC50 of the first is 21-fold higher: 8.8 µM for the first, 0.41 µM for the second.

O=c1[nH]c(Nc2cc(Cl)cc(Cl)c2)nc2c(Cl)ccc(Cl)c12 and O=c1[nH]c(Nc2cc(Cl)cc(Cl)c2)nc2c(Cl)c(Cl)ccc12 are within 1.5-fold of each other in IC50: 0.35 µM for the first, 0.24 µM for the second.

Tested on: not listed separately
Assay: Selective index, ratio of CC50 for African green monkey Vero cells to IC50 for SARS-CoV-2 infected in African green monkey Vero cells
Settings: not given

Compared with CC(C)Nc1nc2cc(Cl)ccc2c(=O)[nH]1, O=c1[nH]c(NCC2CCCCC2)nc2cc(Cl)ccc12 is higher in “Ratio CC50/IC50” value: 1 for the first, 1.7 for the second.

Compared with O=c1[nH]c(Nc2ccc(F)cc2F)nc2cc(Cl)ccc12, O=c1[nH]c(Nc2ccc(F)c(F)c2F)nc2cc(Cl)ccc12 is higher in “Ratio CC50/IC50” value: 1 for the first, 9.4 for the second.

Going from COc1cccc2nc(Nc3cc(F)cc(F)c3)[nH]c(=O)c12 to O=c1[nH]c(Nc2cc(F)cc(F)c2)nc2c(Cl)ccc(Cl)c12, the “Ratio CC50/IC50” value rises from 1 to 76.

Going from COC(=O)c1cccc(Nc2nc3cc(Cl)ccc3c(=O)[nH]2)c1 to O=c1[nH]c(Nc2cc(F)cc(F)c2)nc2cc([N+](=O)[O-])ccc12, the “Ratio CC50/IC50” value rises from 2.8 to 61.

Compared with O=c1[nH]c(Nc2cc(Cl)cc(Cl)c2)nc2c(Cl)ccc(Cl)c12, O=c1[nH]c(Nc2cc(Cl)cc(Cl)c2)nc2c(Cl)c(Cl)ccc12 is higher in “Ratio CC50/IC50” value: 71 for the first, 103 for the second.
